Common to all, as to assay: relative viability (nuclei count vs DMSO), 5 days (fraction); higher = more cells survive
Compound in test [1]: CC[C@H](Nc1ncnc2[nH]cnc12)c1nc2cccc(F)c2c(=O)n1-c1ccccc1 [Idelalisib] + CCNC(=O)c1noc(-c2cc(C(C)C)c(O)cc2O)c1-c1ccc(CN2CCOCC2)cc1 [Luminespib] (partner 0.01 µM)
Summed up:
(§1)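 After 5 days of treatment, lung cancer cells in 1536-well plates were fixed and stained in a single step (final 0.05% Triton X-100, 1% formaldehyde, 1 ug/ml Hoechst) and their nuclei counted on 4× images. Treatment had been applied by pin tool the day after seeding as one drug alone or as a fixed anchor-drug dose with five library-drug doses (not always all listed) in √10 steps. Relative viability is the nuclei count of treated wells divided by that of vehicle wells, and values are medians of duplicate plates.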

Compound in test [2]: CC[C@H](Nc1ncnc2[nH]cnc12)c1nc2cccc(F)c2c(=O)n1-c1ccccc1 [Idelalisib] + N=C(N)NC(=N)NCCc1ccccc1 [Phenformin] (partner 250 µM)
Summed up:
as §1

Compound in test [3]: Nc1nc2[nH]cc(CCc3ccc(C(=O)N[C@@H](CCC(=O)O)C(=O)O)cc3)c2c(=O)[nH]1 [Pemetrexed] + Cc1nc(NC(=O)N2CCC[C@H]2C(N)=O)sc1-c1ccnc(C(C)(C)C(F)(F)F)c1 [Alpelisib] (partner 2 µM)
Summed up: as §1

Compound in test [4]: Nc1nc2[nH]cc(CCc3ccc(C(=O)N[C@@H](CCC(=O)O)C(=O)O)cc3)c2c(=O)[nH]1 [Pemetrexed] + O=C(CCCCCCC(=O)Nc1ccccc1)NO [Vorinostat] (partner 1 µM)
In a few lines:
as §1

On to NCI-H838, for which the relative viability in test [1] (first compound 0.04 µM) worked out at 0.235; in test [1] (first compound 0.1265 µM) it was 0.346; in test [1] (first compound 0.4 µM), 0.273; in test [1] (first compound 1.265 µM), 0.339; in test [1] (first compound 4 µM) it was 0.243; in test [2] (first compound 0.04 µM), 0.61. Besides, the relative viability in test [2] (first compound 0.1265 µM) stood at 0.668; in test [2] (first compound 0.4 µM), 0.405; in test [2] (first compound 1.265 µM), 0.607; in test [2] (first compound 4 µM), 0.405; in test [3] (first compound 0.002 µM), 0.989; in test [3] (first compound 0.006325 µM), 0.878. In addition, the relative viability in test [3] (first compound 0.02 µM) came out at 1.14; in test [3] (first compound 0.06325 µM), 0.934; in test [3] (first compound 0.2 µM), 0.372; in test [4] (first compound 0.002 µM) it was 0.72; in test [4] (first compound 0.006325 µM), 0.727; in test [4] (first compound 0.02 µM), 0.781. The figures for the relative viability in test [4] (first compound 0.06325 µM) and in test [4] (first compound 0.2 µM) were 0.661 and 0.308, respectively.
For the cell line NCI-H1755, the relative viability in test [1] (first compound 0.04 µM) worked out at 0.331; in test [1] (first compound 0.1265 µM), 0.339; in test [1] (first compound 0.4 µM), 0.449; in test [1] (first compound 1.265 µM), 0.699; in test [1] (first compound 4 µM), 0.293; in test [2] (first compound 0.04 µM), 0.633. Further, the relative viability came out at 0.601 in test [2] (first compound 0.1265 µM); 0.558 in test [2] (first compound 0.4 µM); 0.675 in test [2] (first compound 1.265 µM); 0.531 in test [2] (first compound 4 µM); 0.828 in test [3] (first compound 0.002 µM); 0.935 in test [3] (first compound 0.006325 µM). Moreover, the relative viability in test [3] (first compound 0.02 µM) amounted to 0.923; in test [3] (first compound 0.06325 µM), 0.926; in test [3] (first compound 0.2 µM) it was 0.862; in test [4] (first compound 0.002 µM), 0.716; in test [4] (first compound 0.006325 µM) it was 0.813; in test [4] (first compound 0.02 µM) it was 0.776. Further, the results for the relative viability in test [4] (first compound 0.06325 µM) and in test [4] (first compound 0.2 µM) were 0.751 and 0.624, respectively.
Take HCC-15: the relative viability in test [1] (first compound 0.04 µM) was determined as 0.185; in test [1] (first compound 0.1265 µM), 0.242; in test [1] (first compound 0.4 µM) it was 0.286; in test [1] (first compound 1.265 µM), 0.26; in test [1] (first compound 4 µM), 0.404; in test [2] (first compound 0.04 µM), 0.498. Moreover, the relative viability in test [2] (first compound 0.1265 µM) is 0.511; in test [2] (first compound 0.4 µM), 0.389; in test [2] (first compound 1.265 µM), 0.587; in test [2] (first compound 4 µM) it was 0.5; in test [3] (first compound 0.002 µM), 0.821; in test [3] (first compound 0.006325 µM), 0.847. Besides, the relative viability was 0.867 in test [3] (first compound 0.02 µM); 0.666 in test [3] (first compound 0.06325 µM); 0.519 in test [3] (first compound 0.2 µM); 0.821 in test [4] (first compound 0.002 µM); 0.76 in test [4] (first compound 0.006325 µM); 0.878 in test [4] (first compound 0.02 µM). Moreover, the relative viability is 0.69 in test [4] (first compound 0.06325 µM) and 0.345 in test [4] (first compound 0.2 µM).
NCI-H2087: the relative viability was found to be 0.198 in test [1] (first compound 0.04 µM); 0.213 in test [1] (first compound 0.1265 µM); 0.16 in test [1] (first compound 0.4 µM); 0.165 in test [1] (first compound 1.265 µM); 0.115 in test [1] (first compound 4 µM); 0.515 in test [2] (first compound 0.04 µM). Moreover, the relative viability in test [2] (first compound 0.1265 µM) came to 0.494; in test [2] (first compound 0.4 µM), 0.36; in test [2] (first compound 1.265 µM), 0.5; in test [2] (first compound 4 µM) it was 0.326; in test [3] (first compound 0.002 µM), 0.939; in test [3] (first compound 0.006325 µM), 1.02. The relative viability was found to be 0.926 in test [3] (first compound 0.02 µM); 1.01 in test [3] (first compound 0.06325 µM); 0.603 in test [3] (first compound 0.2 µM); 0.662 in test [4] (first compound 0.002 µM); 0.751 in test [4] (first compound 0.006325 µM); 1.06 in test [4] (first compound 0.02 µM). In addition, the relative viability is 0.591 in test [4] (first compound 0.06325 µM) and 0.757 in test [4] (first compound 0.2 µM).
As to LCLC-103H, the relative viability in test [1] (first compound 0.04 µM) was 0.998; in test [1] (first compound 0.1265 µM), 0.731; in test [1] (first compound 0.4 µM) it was 0.757; in test [1] (first compound 1.265 µM) it was 0.933; in test [1] (first compound 4 µM), 0.794; in test [2] (first compound 0.04 µM), 0.367. Besides, the relative viability stood at 0.312 in test [2] (first compound 0.1265 µM); 0.275 in test [2] (first compound 0.4 µM); 0.33 in test [2] (first compound 1.265 µM); 0.314 in test [2] (first compound 4 µM); 0.971 in test [3] (first compound 0.002 µM); 0.992 in test [3] (first compound 0.006325 µM). The relative viability in test [3] (first compound 0.02 µM) is 1.04; in test [3] (first compound 0.06325 µM), 1.01; in test [3] (first compound 0.2 µM), 0.959; in test [4] (first compound 0.002 µM), 0.663; in test [4] (first compound 0.006325 µM), 0.753; in test [4] (first compound 0.02 µM), 0.857. The results for the relative viability in test [4] (first compound 0.06325 µM) and in test [4] (first compound 0.2 µM) were 0.881 and 0.763, respectively.
As to LK-2, the relative viability stood at 0.177 in test [1] (first compound 0.04 µM); 0.142 in test [1] (first compound 0.1265 µM); 0.196 in test [1] (first compound 1.265 µM); 0.178 in test [1] (first compound 4 µM); 0.477 in test [2] (first compound 0.04 µM); 0.407 in test [2] (first compound 0.1265 µM). The relative viability in test [2] (first compound 1.265 µM) was 0.536; in test [2] (first compound 4 µM), 0.384; in test [3] (first compound 0.006325 µM) it was 1.07; in test [3] (first compound 0.02 µM) it was 1.12; in test [3] (first compound 0.06325 µM), 0.962; in test [3] (first compound 0.2 µM), 0.773. Besides, the relative viability in test [4] (first compound 0.002 µM) was found to be 0.312; in test [4] (first compound 0.006325 µM) it was 0.313; in test [4] (first compound 0.02 µM) it was 0.254; in test [4] (first compound 0.06325 µM), 0.297; in test [4] (first compound 0.2 µM) it was 0.338.
On to NCI-H1666, for which the relative viability in test [1] (first compound 0.04 µM) came to 1.09; in test [1] (first compound 0.1265 µM), 1.13; in test [1] (first compound 0.4 µM) it was 1.06; in test [1] (first compound 1.265 µM) it was 1.01; in test [1] (first compound 4 µM) it was 1.04; in test [2] (first compound 0.04 µM) it was 0.618. Also, the relative viability in test [2] (first compound 0.1265 µM) is 0.57; in test [2] (first compound 0.4 µM) it was 0.539; in test [2] (first compound 1.265 µM) it was 0.583; in test [2] (first compound 4 µM), 0.546; in test [3] (first compound 0.002 µM), 1.02; in test [3] (first compound 0.006325 µM), 0.853. Also, the relative viability was found to be 0.969 in test [3] (first compound 0.02 µM); 0.88 in test [3] (first compound 0.06325 µM); 0.595 in test [3] (first compound 0.2 µM); 1.01 in test [4] (first compound 0.002 µM); 0.95 in test [4] (first compound 0.006325 µM); 1.03 in test [4] (first compound 0.02 µM). The relative viability in test [4] (first compound 0.06325 µM) is 0.924; in test [4] (first compound 0.2 µM) it was 0.863.

The record behind these values is the supplement of paper PMC10307832.
